Reference: patent US9085576B2 (AMGEN INC., priority 2013, dated 2015)

How the values were obtained:
BACE = BACE (Homo sapiens (Human), UniProt P56817); assay: In vitro BACE cell-based assay (Aβ40 in conditioned medium, sandwich ELISA)
Cathepsin D (Cat D) = Cathepsin D (Cat D) (Homo sapiens (Human), UniProt P07339); assay: In vitro enzymatic Cathepsin D (Cat D) FRET assay; format: biochemical; conditions: read-out: CatD IC50
[1] = biological target: Beta Secretase enzyme (BACE) (Homo sapiens (Human), UniProt P56817); assay: In vitro enzymatic BACE FRET assay; format: biochemical; conditions: read-out: BACE1 Enzyme assay IC50
Sequence of Beta Secretase enzyme (BACE) (P56817 46-501): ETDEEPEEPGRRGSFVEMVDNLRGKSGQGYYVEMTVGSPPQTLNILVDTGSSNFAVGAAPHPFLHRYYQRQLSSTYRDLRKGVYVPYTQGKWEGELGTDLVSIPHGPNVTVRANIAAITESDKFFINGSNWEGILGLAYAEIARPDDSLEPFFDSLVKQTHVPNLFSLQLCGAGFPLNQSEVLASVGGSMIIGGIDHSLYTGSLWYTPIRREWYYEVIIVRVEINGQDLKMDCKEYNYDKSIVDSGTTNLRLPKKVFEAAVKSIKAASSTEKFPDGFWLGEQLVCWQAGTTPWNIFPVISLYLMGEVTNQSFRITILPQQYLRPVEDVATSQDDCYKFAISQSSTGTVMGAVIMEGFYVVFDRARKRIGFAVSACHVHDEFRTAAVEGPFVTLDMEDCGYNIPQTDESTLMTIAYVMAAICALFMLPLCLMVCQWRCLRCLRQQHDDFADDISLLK

Sequence of Cathepsin D (Cat D) (P07339 65-412, species assumed): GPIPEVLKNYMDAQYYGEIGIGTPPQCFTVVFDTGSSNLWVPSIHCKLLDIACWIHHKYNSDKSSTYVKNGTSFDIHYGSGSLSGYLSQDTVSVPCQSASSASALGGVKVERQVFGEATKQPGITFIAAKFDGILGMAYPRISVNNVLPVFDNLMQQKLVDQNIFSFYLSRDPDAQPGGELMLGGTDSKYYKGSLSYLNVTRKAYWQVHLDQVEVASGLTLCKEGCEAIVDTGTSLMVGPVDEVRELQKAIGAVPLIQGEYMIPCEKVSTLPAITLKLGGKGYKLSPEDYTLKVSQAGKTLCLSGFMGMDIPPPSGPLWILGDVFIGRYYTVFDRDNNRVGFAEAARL
Sequence of BACE (P56817 46-501, species assumed): as the sequence (P56817 46-501) above

Row | IC50 (BACE) [µM] | IC50 (Cathepsin D (Cat D)) [µM] | IC50 [1] [µM] | Compound
1 | 0.167 | 501 | 0.139 | COc1cnc2c(Nc3ccc(F)c([C@@]4(C(F)F)N=C(N)O[C@@H]5C[C@@H]54)c3)nccc2n1 [Example 447, (1R,5S,6R)-5-(difluoromethyl)-5-(2-fluoro-5-((2-methoxypyrido[3,4-b]pyrazin-5-yl)amino)phenyl)-2-oxa-4-azabicyclo[4.1.0]hept-3-en-3-amine]
2 | 0.0277 | 390 | 0.165 | NC1=N[C@](CF)(c2cc(NC(=O)c3ccc(Cl)cn3)cnc2F)[C@H]2C[C@H]2O1 [Example 231, N-(5-((1R,5S,6R)-3-amino-5-(fluoromethyl)-2-oxa-4-azabicyclo[4.1.0]hept-3-en-5-yl)-6-fluoropyridin-3-yl)-5-chloropicolinamide]
3 | 0.0335 | 294 | 0.145 | N#Cc1ccc(C(=O)Nc2cnc(F)c([C@@]3(CF)N=C(N)O[C@@H]4C[C@@H]43)c2)nc1 [Example 204, N-(5-((1R,5S,6R)-3-amino-5-(fluoromethyl)-2-oxa-4-azabicyclo[4.1.0]hept-3-en-5-yl)-6-fluoropyridin-3-yl)-5-cyanopicolinamide]
4 | 0.661 | 474 | 0.871 | NC1=N[C@@](c2cc(NC(=O)c3ccc(Cl)s3)ccc2F)(C(F)F)[C@H]2C[C@H]2O1 [Example 179, N-(3-((1R,5S,6R)-3-amino-5-(difluoromethyl)-2-oxa-4-azabicyclo[4.1.0]hept-3-en-5-yl)-4-fluorophenyl)-5-chlorothiophene-2-carboxamide]
5 | 0.156 | 835 | 0.191 | Cc1csc(C(=O)Nc2ccc(F)c([C@@]3(C(F)F)N=C(N)O[C@@H]4C[C@@H]43)c2)c1 [Example 176, N-(3-((1R,5S,6R)-3-amino-5-(difluoromethyl)-2-oxa-4-azabicyclo[4.1.0]hept-3-en-5-yl)-4-fluorophenyl)-4-methylthiophene-2-carboxamide]
6 | > 15.6 | > 400 | > 40 | COC[C@@]1(c2cc(NC(=O)c3ccc(Cl)cn3)ccc2F)N=C(N)O[C@H]2C[C@H]21 [Example 83, N-(3-((1 S,5R,6S)-3-amino-5-(methoxymethyl)-2-oxa-4-azabicyclo[4.1.0]hept-3-en-5-yl)-4-fluorophenyl)-5-chloropicolinamide]
7 | 0.0345 | 768 | 0.061 | Cc1cc(C(F)F)cnc1C(=O)Nc1ccc(F)c([C@@]2(C(F)F)N=C(N)O[C@@H]3C[C@@H]32)c1 [Example 186, N-(3-((1R,5S,6R)-3-amino-5-(difluoromethyl)-2-oxa-4-azabicyclo[4.1.0]hept-3-en-5-yl)-4-fluorophenyl)-5-(difluoromethyl)-3-methylpicolinamide]
8 | 0.0604 | 1110 | 0.131 | COc1cc(Cl)cnc1C(=O)Nc1cc(C)c(F)c([C@@]2(C(F)F)N=C(N)O[C@@H]3C[C@@H]32)c1 [Example 134, N-(3-((1R,5S,6R)-3-amino-5-(difluoromethyl)-2-oxa-4-azabicyclo[4.1.0]hept-3-en-5-yl)-4-fluoro-5-methylphenyl)-5-chloro-3-methoxypicolinamide]
9 | 0.126 | 793 | 0.5 | COc1cnc(C(=O)Nc2cccc([C@@]3(C(F)F)N=C(N)O[C@@H]4C[C@@H]43)c2)cn1 [Example 438, N-(3-((1R,5S,6R)-3-amino-5-(difluoromethyl)-2-oxa-4-azabicyclo[4.1.0]hept-3-en-5-yl)phenyl)-5-methoxypyrazine-2-carboxamide]
10 | 2.22 | 1260 | 3.35 | CC(C)c1cccnc1C(=O)Nc1ccc(F)c([C@@]2(C(F)F)N=C(N)O[C@@H]3C[C@@H]32)c1 [Example 288, N-(3-((1R,5S,6R)-3-amino-5-(difluoromethyl)-2-oxa-4-azabicyclo[4.1.0]hept-3-en-5-yl)-4-fluorophenyl)-3-isopropylpicolinamide]
11 | 0.0762 | 555 | 0.143 | Cc1cc(OC(F)F)cnc1C(=O)Nc1cc(F)c(Cl)c([C@]2(CF)N=C(N)O[C@H]3C[C@H]32)c1 (racemic) [Example 153, N-(3-([1(S,R),5(R,S),6(S, R)]-3-amino-5-(fluoromethyl)-2-oxa-4-azabicyclo[4.1.0]hept-3-en-5-yl)-4-chloro-5-fluorophenyl)-5-(difluoromethoxy)-3-methylpicolinamide compound with N-(3-((1S,5R,6S)-3-amino-5-(fluoromethyl)-2-oxa-4-azabicyclo[4.1.0]hept-3-en-5-yl)-4-chloro-5-fluorophenyl)-5-(difluoromethoxy)-3-methylpicolinamide (1:1)]
12 | 0.0418 | 582 | 0.0366 | NC1=N[C@@](c2cc(NC(=O)c3cnc(OCc4cscn4)cn3)ccc2F)(C(F)F)[C@H]2C[C@H]2O1 [Example 169, N-(3-((1R,5S,6R)-3-amino-5-(difluoromethyl)-2-oxa-4-azabicyclo[4.1.0]hept-3-en-5-yl)-4-fluorophenyl)-5-(thiazol-4-ylmethoxy)pyrazine-2-carboxamide]
13 | 0.0283 | 182 | 0.149 | C[C@]1(c2nc(NC(=O)c3ccc(C#N)cn3)ccc2F)N=C(N)O[C@@H]2C[C@@H]21 [Example 324, N-(6-((1R,5S,6R)-3-amino-5-methyl-2-oxa-4-azabicyclo[4.1.0]hept-3-en-5-yl)-5-fluoropyridin-2-yl)-5-cyanopicolinamide]
14 | > 15.6 | 1590 | > 40 | Cn1ccc(C(=O)Nc2ccc(F)c([C@@]3(C(F)F)N=C(N)O[C@@H]4C[C@@H]43)c2)cc1=O [Example 249, N-(3-((1R,5S,6R)-3-amino-5-(difluoromethyl)-2-oxa-4-azabicyclo[4.1.0]hept-3-en-5-yl)-4-fluorophenyl)-1-methyl-2-oxo-1,2-dihydropyridine-4-carboxamide]
15 | 0.0086 | 124 | 0.0056 | C#CCOc1cnc(C(=O)Nc2ccc(Cl)c([C@@]3(CF)N=C(N)O[C@@H]4C[C@@H]43)c2)cn1 [Example 279, N-(3-((1R,5S,6R)-3-amino-5-(fluoromethyl)-2-oxa-4-azabicyclo[4.1.0]hept-3-en-5-yl)-4-chlorophenyl)-5-(prop-2-yn-1-yloxy)pyrazine-2-carboxamide]
16 | 2.38 | 577 | 0.0616 | Cc1nc(Cl)cnc1C(=O)Nc1ccc(F)c([C@@]2(C(F)F)N=C(N)O[C@@H]3C[C@@H]32)c1 (stereo in doubt) [Example 53, N-(3-((1R,5S,6R)-3-amino-5-(difluoromethyl)-2-oxa-4-azabicyclo[4.1.0]hept-3-en-5-yl)-4-fluorophenyl)-5-chloro-3-methylpyrazine-2-carboxamide]
17 | 1.75 | 623 | 6.21 | C#CCOc1cnc(C(=O)Nc2cc(F)c(F)c(C3(CF)N=C(N)O[C@H]4C[C@H]43)c2)cn1 (stereo in doubt) [Example 34, N-(3-((1S,5S,6S)-3-amino-5-(fluoromethyl)-2-oxa-4-azabicyclo[4.1.0]hept-3-en-5-yl)-4,5-difluorophenyl)-5-(prop-2-yn-1-yloxy)pyrazine-2-carboxamide]
18 | > 15.6 | 1230 | 40.5 | Cn1cc(C(=O)Nc2ccc(F)c([C@@]3(C(F)F)N=C(N)O[C@@H]4C[C@@H]43)c2)ccc1=O [Example 248, N-(3-((1R,5S,6R)-3-amino-5-(difluoromethyl)-2-oxa-4-azabicyclo[4.1.0]hept-3-en-5-yl)-4-fluorophenyl)-1-methyl-6-oxo-1,6-dihydropyridine-3-carboxamide]
19 | 0.916 | 891 | 0.0261 | NC1=N[C@@](c2cc(NC(=O)c3cnc(OCC4CCCC4)cn3)ccc2F)(C(F)F)[C@H]2C[C@H]2O1 [Example 418, N-(3-((1R,5S,6R)-3-amino-5-(difluoromethyl)-2-oxa-4-azabicyclo[4.1.0]hept-3-en-5-yl)-4-fluorophenyl)-5-(cyclopentylmethoxy)pyrazine-2-carboxamide]
20 | 0.0252 | 510 | 0.0105 | NC1=N[C@@](c2cc(NC(=O)c3nn(C(F)F)cc3Cl)ccc2Cl)(C(F)F)[C@H]2C[C@H]2O1 [Example 224, N-(3-((1R,5S,6R)-3-amino-5-(difluoromethyl)-2-oxa-4-azabicyclo[4.1.0]hept-3-en-5-yl)-4-chlorophenyl)-4-chloro-1-(difluoromethyl)-1H-pyrazole-3-carboxamide]
21 | 0.0604 | 1110 | 0.0763 | COc1cnc(C(=O)Nc2ccc(F)c([C@@]3(C(F)F)N=C(N)O[C@@H]4C[C@@H]43)c2)cn1 [Example 72, N-(3-((1R,5S,6R)-3-amino-5-(difluoromethyl)-2-oxa-4-azabicyclo[4.1.0]hept-3-en-5-yl)-4-fluorophenyl)-5-methoxypyrazine-2-carboxamide]
22 | 0.0927 | 556 | 0.0936 | Cc1nc(OCC(F)(F)F)cnc1C(=O)Nc1cc(F)c(Cl)c([C@@]2(CF)N=C(N)O[C@@H]3C[C@@H]32)c1 [Example 315, N-(3-((1R,5S,6R)-3-amino-5-(fluoromethyl)-2-oxa-4-azabicyclo[4.1.0]hept-3-en-5-yl)-4-chloro-5-fluorophenyl)-3-methyl-5-(2,2,2-trifluoroethoxy)pyrazine-2-carboxamide]

Row | Compound | IC50 (BACE) [µM] | IC50 (Cathepsin D (Cat D)) [µM] | IC50 [1] [µM]
23 | CC(C)(C)OCC(=O)Nc1ccc(F)c([C@@]2(C(F)F)N=C(N)O[C@@H]3C[C@@H]32)c1 [Example 254, N-(3-((1R,5S,6R)-3-amino-5-(difluoromethyl)-2-oxa-4-azabicyclo[4.1.0]hept-3-en-5-yl)-4-fluorophenyl)-2-(tert-butoxy)acetamide] | > 15.6 | 2560 | > 40
